# From patent US12552834B2, “Selective MENA binding peptides” (MASSACHUSETTS INSTITUTE OF TECHNOLOGY, priority 2021, dated 2026)
# “Also recorded” adds a separate entry of the source. Where no end group is shown, it is not given here. disordered linker = not defined here
# Legend:
# ENAH EVH1 domain [1] = biological target: T1, ENAH EVH1 domain (Homo sapiens, UniProt Q8N8S7); assay: Biolayer interferometry (BLI), SUMO-peptide fusions binding monomeric ENAH EVH1 domain WT
# T1 construct: places a 6×-His and TEV cleavage tag N-terminal to the EVH1 domain; 6×-His + TEV cleavage site (N, cleaved yes); made in house; host or cells: E. coli Rosetta2(DE3)
# T1 sequence (Q8N8S7 with tags, fused parts or gaps): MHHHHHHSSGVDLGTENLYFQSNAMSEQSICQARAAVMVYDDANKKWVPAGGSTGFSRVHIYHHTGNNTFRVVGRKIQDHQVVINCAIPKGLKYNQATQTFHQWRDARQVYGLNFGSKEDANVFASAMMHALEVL
# Description: All BLI experiments were performed with 2 replicates on an Octet Red96 instrument (ForteBio). […] The loaded tips were immersed in a solution of ENAH EVH1 domain at a relevant dilution series in BLI buffer at an orbital shake speed of 1000 rpm and run until the binding signal plateaued. ENAH-bound tips were subsequently placed into BLI buffer only for dissociation and run until the binding signal plateaued. KD values were obtained through steady state analysis. […] The association phases were then fit to a one-phase binding model in Prism and the equilibrium steady-state binding signal values from that fit were plotted against ENAH concentration and fit to a single-site specific binding model in Prism to obtain dissociation constants. Errors reported are the standard deviation of two replicates.
# Monomeric ENAH, EVL, or VASP EVH1 domains for use in BLI and ITC experiments, or ENAH EVH1-peptide fusions for crystallography was cloned into a pMCSG7 vector (gift from Frank Gertler, MIT), which places a 6×-His and TEV cleavage tag N-terminal to the EVH1 domain. These constructs were transformed into Rosetta2(DE3) cells and grown in 2×YT media supplemented with 100 μg/mL ampicillin. Cells were grown while shaking at 37° C. to an O.D. 600 of 0.5-0.7, and then cooled on ice for at least 20 minutes. They were then induced with 0.5 mM IPTG and grown while shaking at 18° C. overnight. Induced cultures were resuspended in 25 mL of wash buffer (20 mM Hepes pH 7.6, 500 mM NaCl, 20 mM imidazole) and frozen at −80° C. overnight. The next day, cultures were sonicated, spun down, and applied to Ni-NTA acid agarose resin equilibrated with wash buffer, and washed as described above. Samples were eluted in 10 mL elution buffer (20 mM Hepes pH 7.6, 500 mM NaCl, […]). TEV protease was added to the elution at a ratio of 1 mg TEV:50 mg tagged protein along with 1 mM DTT. This mixture was dialyzed against TEV cleavage buffer (50 mM Hepes pH 8.0, 300 mM NaCl, 5 mM DTT, 1 mM EDTA) at 4° C. overnight and then applied over Ni-NTA acid agarose resin equilibrated with wash buffer. The column was washed with 2×8 mL of wash buffer, and the resulting flow-through and washes were pooled, concentrated, and applied to an S75 26/60 column equilibrated in gel filtration buffer (20 mM Hepes pH 7.6, 150 mM NaCl, 1 mM DTT, 1% glycerol). Purity was verified by SDS-PAGE and combined fractions were concentrated and flash frozen at −80° C.
# Rosetta2(DE3) cells (Novagen) were transformed with pDW363 vector encoding 6×-His-SUMO-peptide fusions and grown in 20 mL of LB+100 μg/mL Ampicillin+0.050 mM D-(+)-Biotin dissolved in DMSO for in vivo biotinylation. Cells were grown to an OD of 0.5-0.7 with 1 mM IPTG and induced for 4-6 hours at 37° C. Pellets were spun down and frozen and −80° C. for at least 2 hours. These pellets were then thawed and resuspended in B-PER reagent (ThermoFisher) at 4 mL/gram of pellet with 0.2 mM PMSF. This suspension was shaken at 25° C. for 10-15 minutes, and then spun down at 15,000 g for 10 minutes. The supernatant was applied to 250 μL of Ni-NTA acid agarose resin equilibrated in 20 mM Tris pH 8.0, 500 mM NaCl, 20 mM Imidazole (Buffer A), and then washed 3 times with 1 mL of this buffer. Peptides were eluted in 1.8 mL of 20 mM Tris pH 8.0, 500 mM NaCl, 300 mM imidazole to use in BLI assays.
# ENAH EVH1 domain [2] = biological target: T1, ENAH EVH1 domain; assay: Isothermal titration calorimetry (ITC), SUMO-peptide titrated into ENAH EVH1 domain; format: binding; details: 25° C.
# Description: ITC experiments were performed with two replicates using a VP-ITC microcalorimeter (MicroCal LLC). To prepare samples for ITC, 2.5 mL of 100 μM ENAH EVH1 domain and 1 mL of 800 μM-1.2 mM of SUMO-peptide fusions were dialyzed against 2 μL of ITC Buffer (20 mM Hepes pH 7.6, 150 mM NaCl, 1 mM TCEP) at 4° C. overnight. The concentrations of proteins were remeasured after dialysis on the day of experiment. SUMO-peptide was titrated into ENAH EVH1 domain at 25° C. Data analysis and curve fitting were performed with the Origin 7.0 software (OriginLab). Errors reported as the standard deviation of two replicates.
# SUMO-peptide fusions were cloned into a pDW363 vector that appends a BAP and 6×-His tag to the N-terminus of the protein and transformed into Rosetta2(DE3) cells. For ITC experiments, these cells were expressed in TB supplemented with 100 μg/mL ampicillin, grown to an O.D. 600 of 0.5-0.7, and induced with 1 mM IPTG. Induced cultures were purified as described above for the pMCGS7 constructs, with the exception of the TEV cleavage step. Instead, after elution with elution buffer, the sample was directly applied to the S75 26/60 column equilibrated in gel filtration buffer. Fractions were pooled, concentrated, and flash frozen at −80° C.
# [3] = tested on: MV^D7shEVL cells expressing GFP-ENAH, GFP-EVL or GFP-VASP; assay: Live-cell imaging of PCARE constructs co-expressed with GFP-tagged Ena/VASP paralogs; format: cell-based, mice
# Excerpt: MV^D7 are embryonic fibroblasts derived from Enah^−/− Vasp^−/− mice, with low Evl expression (Auerbach 2003, Damiano-Guercio 2020). As Ena/VASP family members are known to heterotetramerize (Riquelme 2015), we used an shRNA against Evl to provide a clean background (average knockdown of MV^D7shEVL versus MV^D7 42.8+/−1.8% by qPCR, 3 biological replicates).
# Together, these findings indicate that PCARE interacts specifically with ENAH and is capable of recruiting ENAH away from its normal functional sites. […]
# Cells were imaged on a Ti-E inverted microscope (Nikon), with a 100× Apo TIRF 1.49 NA objective (Nikon) and an ORCA-Flash 4.0 V2 CMOS camera (Hamamatsu). For focal adhesion assessment, cells were imaged with total internal reflection fluorescence (TIRF) microscopy. To increase the depth of imaging for examination of mitochondrial localization, standard widefield fluorescence microscopy was used. Focal adhesion quantification was performed as previously described (Puleo 2019). […] Focal adhesion area was quantified by measuring the paxillin area of each cell within the whole cell area, or by examining individual focal adhesions. […]
Molecule,ITC binding model (ENAH EVH1 domain [2]),ITC thermodynamic driving force of binding (ENAH EVH1 domain [2]),"binding to monomeric ENAH EVH1 domain by BLI, in words (ENAH EVH1 domain [1])",also measured
CC[C@H](C)[C@H](NC(=O)[C@H](CO)NC(=O)[C@@H]1CCCN1C(=O)[C@H](CC(C)C)NC(=O)[C@H](C)NC(=O)[C@H](CO)NC(=O)[C@H](CO)NC(=O)[C@H](CC(=O)O)NC(=O)[C@H](CC(=O)O)NC(=O)[C@H](CC(C)C)NC(=O)[C@@H]1CCCN1C(=O)[C@@H]1CCCN1C(=O)[C@@H]1CCCN1C(=O)[C@@H]1CCCN1C(=O)[C@@H]1CCCN1C(=O)[C@@H]1CCCN1C(=O)[C@H](CC(C)C)NC(=O)[C@H](Cc1ccccc1)NC(=O)[C@H](CC(=O)O)NC(=O)CNC(=O)[C@H](CCC(=O)O)NC(=O)CNC(=O)CNC(=O)[C@@H]1CCCN1C(=O)[C@H](CCC(N)=O)NC(=O)[C@@H](N)CCCCN)C(=O)N[C@@H](CO)C(=O)NCC(=O)N[C@@H](CC(N)=O)C(=O)N[C@@H](Cc1ccccc1)C(=O)N1CCC[C@H]1C(=O)N1CCC[C@H]1C(=O)N1CCC[C@H]1C(=O)N1CCC[C@H]1C(=O)N1CCC[C@H]1C(=O)N[C@@H](CC(C)C)C(=O)O [LPP],fit well to a 1:1 binding model,enthalpically driven,,reduction in affinity (ENAH EVH1 domain [1]; sequence between the two motifs replaced with a Gly-Ser linker): ~4 fold
ADRSPFLPPPPPVTDCSQGSPLPHSPVFPPPPPEAL-OH [NHSL1],fit well to a 1:1 binding model,enthalpically driven,,
GSTQDVQSSPHNQFTFRPLPPPPPPPHACTCARKPP [TENM1],,,,"Kd (ENAH EVH1 domain [1]; BLI, ENAH EVH1 domain): > 60 µM"
"ILSGLPAPDFIDYPERQECNCRPQESPYVSGMKTCH [TRIM1, CXC-motif peptide from E3 ubiquitin ligase TRIM1]",,,did not saturate; also recorded: bound weakly and reversibly,
PPAPEEQDLSMADFPPPEEAFFSVASPEPAGPSGSP [KIAAA1522],,,mid-micromolar affinity,
"mRuby2-PCARE: PCARE^822-848 tagged at the N-terminus with mRuby2 and a disordered linker, lentiviral expression ({mRuby2-disordered linker}-EMEGNLEHLPPPPMEVLMDKSFASLES; reading uncertain; UniProt A6NGG8 822-848, looked up, fragment)",,,,"localization of the PCARE construct ([3]; all conditions except co-expression with ENAH (GFP, ΔEVH1-ENAH, EVL, VASP)): diffuse cytoplasmic localization; localization of the PCARE construct ([3]; co-expressed with GFP-ENAH): moderately recruited to focal adhesions"
